{
  "source": "patent US12329738B2",
  "about": "“Urolithin A and a composition containing same for external use in inflammations of various etiologies” (WARSZAWSKI UNIWERSYTET MEDYCZNY, priority 2018, dated 2025)",
  "key": {"[1]": {"test_system": "Wistar rats (DNCB-induced atopic dermatitis)", "test": "Peripheral blood morphology in DNCB-induced atopic dermatitis rat model", "format": "in vivo", "method": "Wistar rats aged 5-6 weeks (at the start of the experiment) kept under standard conditions with free access to feed and water were used for the tests. The animals were divided into 5 groups, 8 individuals in each group. To prepare 2,4-dinitrochlorobenzene (DNCB) composition inducing inflammation, DNCB was dissolved in 70% ethanol to a final concentration of 1.5% (w/v). Therapeutic composition was an ointment based on white petrolatum with 0.2% or 1.0% urolithin A added. The control ointment was white petrolatum without addition of urolithin A.\nThe induction of chronic atopic dermatitis involved local 9-fold infiltration with 60 μl 1.5% 2,4-dinitrochlorobenzene (DNCB) on each (external and internal) surface of the right ear over 3 weeks (3 times a week). Negative control was the right ear of rats without induction inflammation.\nTreatment of atopic dermatitis with 0.2% or 1.0% urolithin composition and white petrolatum (control) or 1.0% hydrocortisone composition (positive control) was started eight days after sensitization—one day before the fourth application of DNCB. Ointments with appropriate for given group drug added were applied in a total volume of about 20 μl to each ear surface one day before and 6 hours after each DNCB application (for a period of 3 weeks). The negative control group consisted of rats without induced inflammation and treated with white petrolatum in a regimen analogous to the composition of urolithin A or hydrocortisone.\n2 mL blood samples were drawn into syringes (containing heparin as an anticoagulant) from the heart under general anesthesia (isoflurane) on day 32 of the experiment. The test was conducted using the DIATRON automated hematology analyzer. Peripheral blood analysis included the assessment of morphotic elements in blood: erythrocytes, leukocytes and thrombocytes and determination of the number and percentage of different types of leukocytes—WBC as well as values of erythrocyte indicators: hemoglobin (HGB), hematocrit (HCT), mean corpuscular volume (MCV), mean corpuscular hemoglobin (MCH) and mean corpuscular hemoglobin concentration (MCHC).\nThe experimental results obtained were analyzed using the Statistica 7.1 program (StatSoft, Inc., Tulsa, OK, USA) and presented as mean values±SE. Statistical significance was set at P≤0.05. The results with established normal distribution in the D'Agostin and Pearson test were prepared using two- or three-factor analysis of variance (ANOVA). Parametric post-hoc analysis for individual time points was performed using the Bonferroni test."}, "[2]": {"test_system": "human fibroblasts", "conditions": "human fibroblasts in vitro; cited from earlier work"}, "[3]": {"conditions": "day 32, 1% hydrocortisone, urolithin A 0.2 and 1%"}},
  "data": [
    {"compound": "O=c1oc2cc(O)ccc2c2ccc(O)cc12", "note": "[urolithin A]", "values": [
      {"measurement": "WBC (leukocyte) level", "setting": "[1]; 0.2% composition, day 32, vs petrolatum, p<0.05", "value": "reduced WBC values similar to 1% hydrocortisone"},
      {"measurement": "WBC (leukocyte) level", "setting": "[1]; 1% composition, day 32, vs petrolatum, hydrocortisone p<0.05, urolithin A p<0.01", "value": "decrease in the WBC level"},
      {"measurement": "Final WBC values compared to negative control (without atopic dermatitis)", "setting": "[1]; 1% hydrocortisone, urolithin A 0.2 and 1%", "value": "remained at a higher level compared to negative control groups"},
      {"measurement": "WBC growth inhibition compared to 1% hydrocortisone", "setting": "[1]; 1% urolithin A", "value": "did not result in a significantly greater effect of WBC growth inhibition"},
      {"measurement": "MPV (fl), PDW (fl), PDWcv (%)", "setting": "[1]; day 32", "value": "did not change"},
      {"measurement": "RBC, HGB, HCT, MCV", "setting": "[1]; day 32", "value": "no changes"},
      {"measurement": "Concentration of hemoglobin in erythrocytes (MCH and MCHC)", "setting": "[1]; day 32, 1% hydrocortisone (p<0.05), urolithin A 0.2 and 1.0%", "value": "this effect was not seen"},
      {"measurement": "Monocyte population", "setting": "[1]; [3]", "value": "significantly inhibited the increase in the level of all three leukocyte populations"},
      {"measurement": "Neutrophil population", "setting": "[1]; [3]", "value": "significantly inhibited the increase in the level of all three leukocyte populations"},
      {"measurement": "Lymphocyte level", "setting": "[1]; day 32, 1% hydrocortisone, urolithin A 0.2 and 1%, vs petrolatum", "value": "significantly inhibited the increase in the level of all three leukocyte populations"},
      {"measurement": "Collagen synthesis", "setting": "[2]", "value": "stimulated collagen synthesis"},
      {"measurement": "Inhibition of fibroblast aging", "setting": "[2]", "value": "no inhibition of fibroblast aging was found"},
      {"measurement": "mRNA expression for matrix metalloproteinase-1", "setting": "[2]", "value": "inhibited the mRNA expression"}
    ]}
  ]
}
